Publication PMC10602174, “Simultaneous Inhibition of PI3K and PAK in Preclinical Models of Neurofibromatosis Type 2-related Schwannomatosis” (Research Square, 2023)
Blank lines part the entries; values can stand above or below the compound they belong to.

What was measured:
[1] = tested on: HS01 cells (human MD-SC); test: Cell viability (CellTiter-Fluor) and Combenefit synergy, 10x10 matrix; type: cell-based; conditions: HS01 72h, read-out: % Control cell viability; for viability at 0.03906 µM: single drug 39.06 nM; for viability at 0.07813 µM: single drug 78.13 nM; for viability at 0.15625 µM: single drug 156.25 nM; for viability at 0.3125 µM: single drug 312.5 nM; for viability at 0.625 µM: single drug 625 nM; for viability at 1.25 µM: single drug 1250 nM; for viability at 2.5 µM: single drug 2500 nM; for viability at 5 µM: single drug 5000 nM; for viability at 10 µM: single drug 10000 nM
Description: (§1) Drugs used in this study are listed with their targets in Table S1. All drugs were obtained from SelleckChem (Houston, TX, USA), apart from (−)-B-Hydrastine (Santa Cruz Biotechnology, Dallas, TX, USA). Drugs were dissolved in DMSO (10 mM stock). MD-SCs were seeded in 384-well CellBind Corning plates at 1000 cells/well in phenol red-free media. After attachment, cells were treated with drugs at 10 concentrations in a 10×10 matrix. Mouse cells were treated for 48h and human cells for 72h prior to assessment of cell viability with CellTiter-Fluor Assay (Promega, Madison, WI, USA). All drugs were tested in at least two human MD-SC lines. Follow up testing was performed on a subset of combinations using the mouse MD-SC line. Matrix combination data was uploaded into the Combenefit software system to assess drug synergy using three methods (Loewe, Bliss, and HSA)([18]).

[2] = tested on: HS03 cells (human MD-SC); test: as above; type: cell-based; conditions: HS03 72h, read-out: % Control cell viability; for viability at 0.03906 µM: single drug 39.06 nM; for viability at 0.07813 µM: single drug 78.13 nM; for viability at 0.15625 µM: single drug 156.25 nM; for viability at 0.3125 µM: single drug 312.5 nM; for viability at 0.625 µM: single drug 625 nM; for viability at 1.25 µM: single drug 1250 nM; for viability at 2.5 µM: single drug 2500 nM; for viability at 5 µM: single drug 5000 nM; for viability at 10 µM: single drug 10000 nM
Description: as §1

[3] = tested on: MS01 cells (mouse MD-SC); test: as above; type: cell-based; conditions: MS01 48h, read-out: % Control cell viability; for viability at 0.03906 µM: single drug 39.06 nM; for viability at 0.07813 µM: single drug 78.13 nM; for viability at 0.15625 µM: single drug 156.25 nM; for viability at 0.3125 µM: single drug 312.5 nM; for viability at 0.625 µM: single drug 625 nM; for viability at 1.25 µM: single drug 1250 nM; for viability at 2.5 µM: single drug 2500 nM; for viability at 5 µM: single drug 5000 nM; for viability at 10 µM: single drug 10000 nM
Description: as §1

[4] = Pharmacokinetic study, plasma and sciatic nerve after single oral gavage; type: in vivo, NSG mice; conditions: for Tmax: both sexes, NOD.Cg-Prkdcscid Il2rgtm1Wjl/SzJ (NSG), mouse, plasma, po, read-out: time of maximum plasma concentration; for penetration of blood-nerve barrier / detection in intact nerve: single oral gavage
Source text: The UCF animal facility is accredited by the Association for Assessment and Accreditation of Laboratory Animal Care. A total of 50 six- to eight-week-old mice were used for pharmacokinetic studies. […] Drugs were delivered via 0.5% methylcellulose, 0.2% Tween 80, 10% DMSO vehicle. Ten mice (three per drug and one control receiving vehicle alone) were used at each time point. Collected samples were frozen and sent to Cyprotex (Watertown, MA, USA) for LC-MS/MS quantitation of drug levels. Pharmacokinetic calculations were performed using the PKSolver software. The plasma half-life (t½) was calculated as the time required to reduce by half the plasma concentration after reaching pseudo-equilibrium and is not the time required to eliminate half the administered dose. An additional LC-MS/MS analyses of a subset of the treated mice (see below) was conducted. […] Three mice from each treatment group were selected randomly at the end of the in vivo study to assess the levels of drug in plasma, intact control nerve, and tumor. Samples were collected 4h after the final oral gavage, frozen, and sent to Cyprotex for analysis.

[5] = tested on: human MD-SCs (HS02, HS05); conditions: human MD-SC lines, Incucyte
Description: (§2) Human HS11, HS01, HS02, HS13 and HS05 and mouse MTC-10 cells (1,000 cells/well) were seeded in growth medium in three replicate wells/condition of a 384-well CellBIND Corning plate. […] Wells were imaged using the Incucyte® S5 Live-Cell Analysis system (Sartorius) for 24–72h. Phase and green fluorescent images were collected every 2h and analyzed using the integrated basic analyzer software.

[6] = tested on: mouse MD-SCs (MS01); test: Incucyte confluency and CC-3/7 assay; type: cell-based
[7] = tested on: HS02 cells; test: Proteome Profiler Human Apoptosis Array; type: cell-based; conditions: HS02, pictilisib 2.5 μM 6h vs vehicle
Description: (§3) Human HS02 MD-SCs and mouse MTC-10 (MS01) MD-SCs cell lines were used. […] Cells were lysed and procedure was performed according to the Proteome Profiler Human or Mouse Apoptosis Array Kit (Cat No: ARY009 for Human, Cat No: ARY031 for Mouse, Biotechne, Minneapolis, MA, USA). Arrays were visualized using the Jess System (Biotechne), densitometry was measured and normalized to reference spots using ImageJ Software (NIH, Bethesda, MD, USA). Calculations were carried out using Prism 9 Software (GraphPad, Boston, MA, USA).

[8] = tested on: MS01 cells; test: Proteome Profiler Mouse Apoptosis Array; type: cell-based; conditions: MS01, pictilisib 2.5 μM 6h vs vehicle
Description: as §3

[9] = tested on: glioblastoma xenografts; parameters: method as in PMID 19584227; conditions: cited from earlier work
[10] = tested on: ovarian cancer xenografts; parameters: method as in PMID 19584227; conditions: cited from earlier work
[11] = tested on: patients with advanced solid tumors; conditions: phase 1, advanced solid tumors; cited from earlier work
[12] = tested on: estrogen receptor positive breast cancer patients; conditions: addition of pictilisib to fulvestrant; cited from earlier work
[13] = tested on: luminal B breast cancer; conditions: adding pictilisib to anastrozole; cited from earlier work
[14] = tested on: patients with advanced solid tumors; conditions: pictilisib combined with the MEK inhibitor cobimetinib; cited from earlier work
[15] = tested on: HS01 cells; test: Incucyte live cell imaging, confluence and cleaved caspase 3/7; type: cell-based, human; conditions: HS01, 72h time course
Description: as §2

[16] = Drug levels in plasma, control nerve and tumor at end of in vivo study; parameters: species or system NSG mice; conditions: 4h after final oral gavage, 14 days of daily treatment
Source text: Male and female NOD.Cg-Prkdcscid Il2rgtm1Wjl/SzJ (NSG) mice were bred in house and all care and use was approved by the University of Central Florida (UCF) Institutional Animal Care and Usage Committee (IACUC; #19 – 05, approved 04/08/2019). The UCF animal facility is accredited by the Association for Assessment and Accreditation of Laboratory Animal Care. A total of 50 six- to eight-week-old mice were used for pharmacokinetic studies. […] Drugs were delivered via 0.5% methylcellulose, 0.2% Tween 80, 10% DMSO vehicle. Ten mice (three per drug and one control receiving vehicle alone) were used at each time point. Collected samples were frozen and sent to Cyprotex (Watertown, MA, USA) for LC-MS/MS quantitation of drug levels. Pharmacokinetic calculations were performed using the PKSolver software. The plasma half-life (t½) was calculated as the time required to reduce by half the plasma concentration after reaching pseudo-equilibrium and is not the time required to eliminate half the administered dose. An additional LC-MS/MS analyses of a subset of the treated mice (see below) was conducted. This was done to determine whether PF-3758309 was accessible to the tumor neo-vasculature that can differ from that of the organ/tissue housing the tumor. […]

[17] = tested on: MS01-Luc allografts (mouse MD-SCs); test: Immunohistochemistry of allograft tumors; type: in vivo, NSG mice; conditions: tumors after 14 days of treatment, n = 4/group
[18] = tested on: human MD-SCs; test: Cell viability of MD-SC lines, monotherapy EC50 and combination synergy; type: cell-based
Description: as §1

Tmax [4]: 1 h
time of maximum nerve concentration ([4]; single agent, single oral gavage 75 mg/kg): 1 h
SMILES: CS(=O)(=O)N1CCN(Cc2cc3nc(-c4cccc5[nH]ncc45)nc(N4CCOCC4)c3s2)CC1 [Pictilisib]
viability at 0.03906 µM [1]: 88%
viability at 0.07813 µM [1]: 85%
viability at 0.15625 µM [1]: 78%
viability at 0.3125 µM [1]: 72%
viability at 0.625 µM [1]: 72%
viability at 1.25 µM [1]: 66%
viability at 2.5 µM [1]: 66%
viability at 5 µM [1]: 64%
viability at 10 µM [1]: 65%
viability at 0.03906 µM [2]: 93%
viability at 0.07813 µM [2]: 97%
viability at 0.15625 µM [2]: 94%
viability at 0.3125 µM [2]: 89%
viability at 0.625 µM [2]: 86%
viability at 1.25 µM [2]: 79%
viability at 2.5 µM [2]: 68%
viability at 5 µM [2]: 72%
viability at 10 µM [2]: 77%
viability at 0.03906 µM [3]: 81%
viability at 0.07813 µM [3]: 78%
viability at 0.15625 µM [3]: 70%
viability at 0.3125 µM [3]: 65%
viability at 0.625 µM [3]: 65%
viability at 1.25 µM [3]: 54%
viability at 2.5 µM [3]: 53%
viability at 5 µM [3]: 50%
viability at 10 µM [3]: 55%
penetration of blood-nerve barrier / detection in intact nerve ([4]; single agent): penetrated the normal blood-nerve barrier
confluency [5]: significantly reduced confluency
CC-3/7 signal [6]: high CC-3/7 signal
confluency [6]: low confluency
CC-3, Bcl-2 and Bcl-x protein levels [7]: no difference
XIAP protein level [7]: significant increase
CC-3 protein level [8]: significant increase
anti-apoptotic proteins Bcl-2, Bcl-x and XIAP [8]: significant decrease
growth inhibition [9]: 98%
growth inhibition [10]: 80%
tolerability [11]: well tolerated
dose-limiting toxicity [12]: limited by toxicity
progression-free survival [12]: did not significantly improve progression-free survival
suppression of tumor cell proliferation [13]: significantly increased suppression of tumor cell proliferation
tolerability and efficacy [14]: limited tolerability and efficacy

SMILES: COc1ccc(-c2nc(N3CCOCC3)c3sc(CN(C)c4ncc(C(=O)NO)cn4)cc3n2)cn1 [CUDC907]
cleaved caspase 3/7 (CC3/7) signal [15]: high CC-3/7 signal starting at 14h

SMILES: Cc1nc(Nc2n[nH]c3c2CN(C(=O)N[C@H](CN(C)C)c2ccccc2)C3(C)C)c2sccc2n1 [PF-3758309]
viability at 0.03906 µM [1]: 71%
viability at 0.07813 µM [1]: 66%
viability at 0.15625 µM [1]: 67%
viability at 0.3125 µM [1]: 65%
viability at 0.625 µM [1]: 65%
viability at 1.25 µM [1]: 67%
viability at 2.5 µM [1]: 59%
viability at 5 µM [1]: 40%
viability at 10 µM [1]: 21%
viability at 0.03906 µM [2]: 72%
viability at 0.07813 µM [2]: 67%
viability at 0.15625 µM [2]: 63%
viability at 0.3125 µM [2]: 64%
viability at 0.625 µM [2]: 62%
viability at 1.25 µM [2]: 59%
viability at 2.5 µM [2]: 56%
viability at 5 µM [2]: 44%
viability at 10 µM [2]: 23%
viability at 0.03906 µM [3]: 61%
viability at 0.07813 µM [3]: 57%
viability at 0.15625 µM [3]: 50%
viability at 0.3125 µM [3]: 48%
viability at 0.625 µM [3]: 43%
viability at 1.25 µM [3]: 40%
viability at 2.5 µM [3]: 35%
viability at 5 µM [3]: 24%
viability at 10 µM [3]: 7%
half-life in plasma, together with pictilisib versus alone ([4]; PF-3758309 25 mg/kg oral): similar
maximum concentration in plasma ([4]; PF-3758309 25 mg/kg oral, alone): 110 ng/mL
maximum concentration in plasma ([4]; PF-3758309 25 mg/kg oral, co-administered with pictilisib 75 mg/kg): 341 ng/mL
Tmax [4]: 2 h
detection in normal nerve ([4]; co-administered with pictilisib): remained undetected in normal nerve
penetration of blood-nerve barrier / detection in intact nerve ([4]; single agent): not detected in the intact nerve
drug in tumor [16]: bioavailable in the tumor
Ki67 staining (cell proliferation) [17]: significantly decreased cell proliferation
YAP staining reduction [17]: statistically significant

SMILES: COc1ncc(-c2ccc3nccc(-c4ccnnc4)c3c2)cc1NS(=O)(=O)c1ccc(F)cc1F [omipalisib]
EC50 [18]: 2 nM
